Laboratory results from patent US12435092B2, “Substituted imidazo[1,2-A]quinazolines as inhibitors of PARG” (858 Therapeutics, Inc., priority 2022, dated 2025).

Molecular target: T1, cellular PARG (Homo sapiens, UniProt Q86W56)
T1 construct: endogenous in cells; host or cells: HeLa
Assay: Nuclear PAR accumulation assay (immunofluorescence high-content imaging)
Assay type: cell-based
Settings: HeLa cells, 1 hour compound treatment then MMS 50 μg/mL for an additional hour
Procedure: Compound IC50 values for inhibition of cellular PARG were determined using an immunofluorescence high-content imaging assay for nuclear PAR accumulation. HeLa cells were plated at 15,000 cells/well in a 96-well plate the day before compound treatment and then treated with varying concentrations of test compound and incubated for 1 hour at 37° C.+5% CO2. Following test compound treatment, methylmethane sulfonate (MMS) was added to a final concentration of 50 μg/mL and the cells were incubated for an additional hour. Following treatment, the cells were fixed with ice cold 95% methanol and the plates sealed and placed at −20° C. for 15 minutes. The cells were then washed once with phosphate buffered saline (PBS) and permeabilized with 0.1% Triton-X 100 for 20 minutes at room temperature. The cells were again washed once with PBS and incubated with an anti-poly-ADP ribose (PAR) monoclonal antibody (Millipore Part #AM80 clone 10H) diluted 1:1,000 in 5% fetal bovine serum +0.1% Tween-20+PBS overnight at 4° C. The cells were then washed three times with PBS before incubation with a fluorescently conjugated goat anti-mouse antibody (Invitrogen A32723) diluted 1:500 in 5% FBS+0.1% Tween-20+PBS for 1 hour at room temperature. The cells were again washed three times with PBS and the nuclei labeled by incubating with 1 μg/mL DAPI (4′,6-diamidino-2-phenylindole). Nuclear PAR accumulation was evaluated using high-content fluorescence microscopy. Four fields for each well were acquired at 20× magnification resulting in at least 1,000 cells analyzed per well. Using high-content software (CellReporterXpress) the nuclei were detected and segmented using the DAPI channel and the fluorescence intensity of the PAR-Alexa 488 channel was quantified within the nuclei regions. Both the average intensity per nucleus and percent PAR positive cells were quantified. Percent PAR positive cells were identified by having greater anti-PAR labeling above the threshold set with vehicle DMSO treated control cells. Percent inhibition of PARG by test compounds was calculated by normalizing the data to the 0.1% DMSO and reference compound control values, which represent 0% and 100% inhibition of enzymatic activity, respectively. Concentration-response-curves and IC50 values were generated using four parameter logistic curve fit software.

T1 sequence (Q86W56 whole entry): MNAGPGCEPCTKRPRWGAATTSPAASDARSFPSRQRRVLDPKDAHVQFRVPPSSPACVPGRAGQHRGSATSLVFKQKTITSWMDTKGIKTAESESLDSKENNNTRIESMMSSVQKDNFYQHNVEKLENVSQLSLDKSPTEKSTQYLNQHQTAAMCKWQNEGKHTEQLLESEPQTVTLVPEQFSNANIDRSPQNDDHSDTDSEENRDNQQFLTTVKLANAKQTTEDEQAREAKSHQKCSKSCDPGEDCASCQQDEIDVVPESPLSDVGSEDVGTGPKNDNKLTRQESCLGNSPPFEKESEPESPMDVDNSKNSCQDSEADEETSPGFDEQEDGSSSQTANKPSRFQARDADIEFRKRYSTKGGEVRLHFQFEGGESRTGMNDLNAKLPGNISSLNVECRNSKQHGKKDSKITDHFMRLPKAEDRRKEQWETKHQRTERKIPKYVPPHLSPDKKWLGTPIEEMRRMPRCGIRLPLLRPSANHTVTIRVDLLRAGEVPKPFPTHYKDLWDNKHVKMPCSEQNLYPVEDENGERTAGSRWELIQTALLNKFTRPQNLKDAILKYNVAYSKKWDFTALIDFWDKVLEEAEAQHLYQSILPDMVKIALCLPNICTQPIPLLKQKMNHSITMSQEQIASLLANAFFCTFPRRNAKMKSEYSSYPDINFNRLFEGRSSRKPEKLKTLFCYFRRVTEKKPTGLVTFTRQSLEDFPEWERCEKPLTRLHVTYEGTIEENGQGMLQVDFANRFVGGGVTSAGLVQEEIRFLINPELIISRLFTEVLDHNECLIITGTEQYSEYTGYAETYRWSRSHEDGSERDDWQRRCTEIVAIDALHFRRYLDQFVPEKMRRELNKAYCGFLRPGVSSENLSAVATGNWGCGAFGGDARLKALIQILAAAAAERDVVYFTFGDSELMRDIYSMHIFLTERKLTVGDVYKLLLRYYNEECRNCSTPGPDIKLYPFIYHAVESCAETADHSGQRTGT

Row | IC50 | Compound
1 | ≤ 0.1 µM | Cc1ncc(CN2C(=O)c3cc(S(=O)(=O)NC4(C)CC4)ccc3N3C2=NC[C@H]3C)s1 [Example 31, (R)-1-methyl-N-(1-methylcyclopropyl)-4-((2-methylthiazol-5-yl)methyl)-5-oxo-1,2,4,5-tetrahydroimidazo[1,2-a]quinazoline-7-sulfonamide]
2 | ≤ 0.1 µM | Cc1cc(CN2C(=O)c3cc(S(=O)(=O)NC4(C)CC4)ccc3N3C2=NC[C@H]3C)on1 [Example 32, (R)-1-methyl-N-(1-methylcyclopropyl)-4-((3-methylisoxazol-5-yl)methyl)-5-oxo-1,2,4,5-tetrahydroimidazo[1,2-a]quinazoline-7-sulfonamide]
3 | 0.1 to 1 µM | C#C[C@H]1CN=C2N(Cc3cnn(C)c3)C(=O)c3cc(S(=O)(=O)NC4(C)CC4)ccc3N21 [Example 33, (S)-1-ethynyl-4-((1-methyl-1H-pyrazol-4-yl)methyl)-N-(1-methylcyclopropyl)-5-oxo-1,2,4,5-tetrahydroimidazo[1,2-a]quinazoline-7-sulfonamide]
4 | ≤ 0.1 µM | C#C[C@@H]1CN=C2N(Cc3cnn(C)c3)C(=O)c3cc(S(=O)(=O)NC4(C)CC4)ccc3N21 [Example 34, (R)-1-ethynyl-4-((1-methyl-1H-pyrazol-4-yl)methyl)-N-(1-methylcyclopropyl)-5-oxo-1,2,4,5-tetrahydroimidazo[1,2-a]quinazoline-7-sulfonamide]
5 | ≤ 0.1 µM | Cn1cc(CN2C(=O)c3cc(S(=O)(=O)NC4(C)CC4)ccc3N3C2=NC[C@H]3C2CC2)cn1 [Example 35, (R)-1-cyclopropyl-4-((1-methyl-1H-pyrazol-4-yl)methyl)-N-(1-methylcyclopropyl)-5-oxo-1,2,4,5-tetrahydroimidazo[1,2-a]quinazoline-7-sulfonamide]
6 | 0.1 to 1 µM | Cn1cc(CN2C(=O)c3cc(S(=O)(=O)NC4(C)CC4)ccc3N3C2=NC[C@@H]3C2CC2)cn1 [Example 36, (S)-1-cyclopropyl-4-((1-methyl-1H-pyrazol-4-yl)methyl)-N-(1-methylcyclopropyl)-5-oxo-1,2,4,5-tetrahydroimidazo[1,2-a]quinazoline-7-sulfonamide]
7 | 1 to 10 µM | CC(C)[C@H]1CN=C2N(Cc3cnn(C)c3)C(=O)c3cc(S(=O)(=O)NC4(C)CC4)ccc3N21 [Example 39, (S)-1-isopropyl-4-((1-methyl-1H-pyrazol-4-yl)methyl)-N-(1-methylcyclopropyl)-5-oxo-1,2,4,5-tetrahydroimidazo[1,2-a]quinazoline-7-sulfonamide]
8 | ≤ 0.1 µM | CC(C)[C@@H]1CN=C2N(Cc3cnn(C)c3)C(=O)c3cc(S(=O)(=O)NC4(C)CC4)ccc3N21 [Example 40, (R)-1-isopropyl-4-((1-methyl-1H-pyrazol-4-yl)methyl)-N-(1-methylcyclopropyl)-5-oxo-1,2,4,5-tetrahydroimidazo[1,2-a]quinazoline-7-sulfonamide]
9 | 0.1 to 1 µM | CC[C@H]1CN=C2N(Cc3cnn(C)c3)C(=O)c3cc(S(=O)(=O)NC4(C)CC4)ccc3N21 [Example 44, (S)-1-ethyl-4-((1-methyl-1H-pyrazol-4-yl)methyl)-N-(1-methylcyclopropyl)-5-oxo-1,2,4,5-tetrahydroimidazo[1,2-a]quinazoline-7-sulfonamide]
10 | ≤ 0.1 µM | CC[C@@H]1CN=C2N(Cc3cnn(C)c3)C(=O)c3cc(S(=O)(=O)NC4(C)CC4)ccc3N21 [Example 45, (R)-1-ethyl-4-((1-methyl-1H-pyrazol-4-yl)methyl)-N-(1-methylcyclopropyl)-5-oxo-1,2,4,5-tetrahydroimidazo[1,2-a]quinazoline-7-sulfonamide]
11 | ≤ 0.1 µM | C[C@@H]1CN=C2N(Cc3cnn(C)c3)C(=O)c3cc(S(=O)(=O)NC4(C)CC4)ccc3N21 [Example 46, (R)-1-methyl-4-((1-methyl-1H-pyrazol-4-yl)methyl)-N-(1-methylcyclopropyl)-5-oxo-1,2,4,5-tetrahydroimidazo[1,2-a]quinazoline-7-sulfonamide]
12 | 0.1 to 1 µM | CCN1C(=O)c2cc(S(=O)(=O)NC3(C)CC3)ccc2N2C1=NC[C@H]2C [Example 47, (R)-4-ethyl-1-methyl-N-(1-methylcyclopropyl)-5-oxo-1,2,4,5-tetrahydroimidazo[1,2-a]quinazoline-7-sulfonamide]
13 | 0.1 to 1 µM | CCC1CN=C2N(C)C(=O)c3cc(S(=O)(=O)NC4(C)CC4)ccc3N21 (stereo not drawn) [Example 50, 1-ethyl-4-methyl-N-(1-methylcyclopropyl)-5-oxo-1,2,4,5-tetrahydroimidazo[1,2-a]quinazoline-7-sulfonamide]
14 | 1 to 10 µM | C[C@@H]1CN=C2N(Cc3ccccc3)C(=O)c3cc(S(=O)(=O)NC4(C)CC4)ccc3N21 [Example 51, (R)-4-benzyl-1-methyl-N-(1-methylcyclopropyl)-5-oxo-1,2,4,5-tetrahydroimidazo[1,2-a]quinazoline-7-sulfonamide]
15 | 0.1 to 1 µM | C[C@@H]1CN=C2N(C)C(=O)c3cc(S(=O)(=O)NC4(C)CC4)ccc3N21 [Example 52, (R)-1,4-dimethyl-N-(1-methylcyclopropyl)-5-oxo-1,2,4,5-tetrahydroimidazo[1,2-a]quinazoline-7-sulfonamide]

Continued, compound first:

Row | Compound | IC50
16 | CCN1C(=O)c2cc(S(=O)(=O)NC3(C)CC3)ccc2N2C1=NC[C@H]2C1CC1 [Example 26, (R)-1-cyclopropyl-4-ethyl-N-(1-methylcyclopropyl)-5-oxo-1,2,4,5-tetrahydroimidazo[1,2-a]quinazoline-7-sulfonamide] | 0.1 to 1 µM
17 | C#C[C@H]1CN=C2N(CC)C(=O)c3cc(S(=O)(=O)NC4(C)CC4)ccc3N21 [Example 27, (S)-4-ethyl-1-ethynyl-N-(1-methylcyclopropyl)-5-oxo-1,2,4,5-tetrahydroimidazo[1,2-a]quinazoline-7-sulfonamide] | 1 to 10 µM
18 | C#C[C@@H]1CN=C2N(CC)C(=O)c3cc(S(=O)(=O)NC4(C)CC4)ccc3N21 [Example 28, (R)-4-ethyl-1-ethynyl-N-(1-methylcyclopropyl)-5-oxo-1,2,4,5-tetrahydroimidazo[1,2-a]quinazoline-7-sulfonamide] | 0.1 to 1 µM
19 | CC[C@H]1CN=C2N(Cc3cnc(C)s3)C(=O)c3cc(S(=O)(=O)NC4(C)CC4)ccc3N21 [Example 29, (S)-1-ethyl-N-(1-methylcyclopropyl)-4-((2-methylthiazol-5-yl)methyl)-5-oxo-1,2,4,5-tetrahydroimidazo[1,2-a]quinazoline-7-sulfonamide] | 1 to 10 µM
20 | CC[C@@H]1CN=C2N(Cc3cnc(C)s3)C(=O)c3cc(S(=O)(=O)NC4(C)CC4)ccc3N21 [Example 30, (R)-1-ethyl-N-(1-methylcyclopropyl)-4-((2-methylthiazol-5-yl)methyl)-5-oxo-1,2,4,5-tetrahydroimidazo[1,2-a]quinazoline-7-sulfonamide] | ≤ 0.1 µM
21 | CCN1C(=O)c2cc(S(=O)(=O)NC3(C)CC3)ccc2N2C1=NC[C@@H]2C(C)C [Example 37, (S)-4-ethyl-1-isopropyl-N-(1-methylcyclopropyl)-5-oxo-1,2,4,5-tetrahydroimidazo[1,2-a]quinazoline-7-sulfonamide] | > 10 µM
22 | CCN1C(=O)c2cc(S(=O)(=O)NC3(C)CC3)ccc2N2C1=NC[C@H]2C(C)C [Example 38, (R)-4-ethyl-1-isopropyl-N-(1-methylcyclopropyl)-5-oxo-1,2,4,5-tetrahydroimidazo[1,2-a]quinazoline-7-sulfonamide] | 0.1 to 1 µM
23 | CC[C@H]1CN=C2N(CC)C(=O)c3cc(S(=O)(=O)NC4(C)CC4)ccc3N21 [Example 41, (S)-1,4-diethyl-N-(1-methylcyclopropyl)-5-oxo-1,2,4,5-tetrahydroimidazo[1,2-a]quinazoline-7-sulfonamide] | > 10 µM
24 | CC[C@@H]1CN=C2N(CC)C(=O)c3cc(S(=O)(=O)NC4(C)CC4)ccc3N21 [Example 42, (R)-1,4-diethyl-N-(1-methylcyclopropyl)-5-oxo-1,2,4,5-tetrahydroimidazo[1,2-a]quinazoline-7-sulfonamide] | 0.1 to 1 µM
25 | C#CC1CN=C2N(C)C(=O)c3cc(S(=O)(=O)NC4(C)CC4)ccc3N21 (stereo not drawn) [Example 43, 1-ethynyl-4-methyl-N-(1-methylcyclopropyl)-5-oxo-1,2,4,5-tetrahydroimidazo[1,2-a]quinazoline-7-sulfonamide] | 0.1 to 1 µM
26 | CN1C(=O)c2cc(S(=O)(=O)NC3(C)CC3)ccc2N2C1=NCC2C1CC1 (stereo not drawn) [Example 48, 1-cyclopropyl-4-methyl-N-(1-methylcyclopropyl)-5-oxo-1,2,4,5-tetrahydroimidazo[1,2-a]quinazoline-7-sulfonamide] | 0.1 to 1 µM
27 | CC(C)C1CN=C2N(C)C(=O)c3cc(S(=O)(=O)NC4(C)CC4)ccc3N21 (stereo not drawn) [Example 49, 1-isopropyl-4-methyl-N-(1-methylcyclopropyl)-5-oxo-1,2,4,5-tetrahydroimidazo[1,2-a]quinazoline-7-sulfonamide] | 1 to 10 µM
